Source: ChEMBL document CHEMBL4376834, “Discovery of 4H-Chromen-4-one Derivatives as a New Class of Selective Rho Kinase (ROCK) Inhibitors, which Showed Potent Activity in ex Vivo Diabetic Retinopathy Models” (J Med Chem, 2019)
In brackets after ≈: the same amount, converted by molar mass.

What was measured:
[1] = Solubility of compound in miniQ water at 1 mg at 37 degreeC incubated under shaking conditions for overnight by LC-MS analysis; format: physicochemical
[2] = target: Tyrosine-protein kinase ABL1 (Homo sapiens, UniProt P00519, T315I); test: Inhibition of human recombinant ABL1 T315I mutant (27 to end residues) using EAIYAAPFAKKK as substrate incubated for 40 mins in presence of [gamma-33P]ATP by radiometric scintillation counting analysis
[3] = target: Serine/threonine-protein kinase B-raf (Homo sapiens, UniProt P15056, V600E); test: Inhibition of recombinant full length human B-Raf V599E mutant (416 to end residues) using myelin basic protein as substrate incubated for 40 mins in presence of [gamma-33ATP] by radiometric scintillation counting analysis
[4] = target: Calcium/calmodulin-dependent protein kinase type 1 (Homo sapiens, UniProt Q14012); test: Inhibition of recombinant human CaMK1alpha (2 to end residues) using calmodulin as substrate incubated for 40 mins in presence of [gamma-33ATP] by radiometric scintillation counting analysis
[5] = target: Cyclin-dependent kinase 5/CDK5 activator 1 (Homo sapiens, UniProt Q00535); test: Inhibition of recombinant full length human CDK5/p35 using histone H1 as substrate incubated for 40 mins in presence of [gamma-33ATP] by radiometric scintillation counting analysis; format: protein-complex assay
CDK12/Cyclin K = CDK12/Cyclin K (Homo sapiens, UniProt Q9NYV4); test: Inhibition of recombinant full length human CDK12/cyclinK using RSRSRSRSRSRSR as substrate incubated for 120 mins in presence of [gamma-33ATP] by radiometric scintillation counting analysis; format: protein-complex assay
[6] = target: Cyclin-dependent kinase 14/Cyclin-Y (Homo sapiens, UniProt O94921); test: Inhibition of recombinant full length human CDK14/cyclinY in presence of [gamma-33ATP] by radiometric scintillation counting analysis; format: protein-complex assay
[7] = target: Cyclin-dependent kinase-like 1 (Homo sapiens, UniProt Q00532); test: Inhibition of recombinant human CDKL1 (1 to 303 residues) using RRRFRPASPLRGP as substrate incubated for 120 mins in presence of [gamma-33ATP] by radiometric scintillation counting analysis
[8] = target: Cyclin-dependent kinase-like 4 (Homo sapiens, UniProt Q5MAI5); test: Inhibition of recombinant full length human CDKL4 in presence of [gamma-33ATP] by radiometric scintillation counting analysis
[9] = target: Transient receptor potential cation channel subfamily M member 7 (Homo sapiens, UniProt Q96QT4); test: Inhibition of recombinant human CHAK1 (1180 to end residues) using myelin basic protein as substrate incubated for 40 mins in presence of [gamma-33ATP] by radiometric scintillation counting analysis
[10] = target: Serine/threonine-protein kinase DCLK2 (Homo sapiens, UniProt Q8N568); test: Inhibition of recombinant human DCAMKL2 (376 to end residues) using KKLNRTLSFAEPG as substrate after 40 mins in presence of [gamma-33ATP] by radiometric scintillation counting analysis
[11] = target: Serine/threonine-protein kinase 17A (Homo sapiens, UniProt Q9UEE5); test: Inhibition of recombinant full length human DRAK1 using KKLNRTLSFAEPG as substrate after 40 mins in presence of [gamma-33ATP] by radiometric scintillation counting analysis
[12] = target: Dual specificity tyrosine-phosphorylation-regulated kinase 1A (Homo sapiens, UniProt Q13627); test: Inhibition of recombinant full length human DYRK1A using RRRFRPASPLRGPP as substrate after 40 mins in presence of [gamma-33ATP] by radiometric scintillation counting analysis
[13] = target: Dual specificity tyrosine-phosphorylation-regulated kinase 1B (Homo sapiens, UniProt Q9Y463); test: Inhibition of recombinant full length human DYRK1B using RRRFRPASPLRGPP as substrate after 40 mins in presence of [gamma-33ATP] by radiometric scintillation counting analysis
[14] = target: Eukaryotic elongation factor 2 kinase (Homo sapiens, UniProt O00418, H23R); test: Inhibition of recombinant human eEF2K H23R mutant (2 to end residues) using RKKFGESEKTKTK as substrate after 40 mins in presence of [gamma-33ATP] by radiometric scintillation counting analysis
[15] = target: Serine/threonine-protein kinase D1 (Homo sapiens, UniProt Q15139); test: Inhibition of recombinant full-length human PKCmu R135A mutant using KKLNRTLSVA as substrate incubated for 40 mins in presence of [gamma33P]ATP by radiometric scintillation counting analysis
Ephrin type-A receptor 1 = Ephrin type-A receptor 1 (Homo sapiens, UniProt P21709); test: Inhibition of recombinant human EphA1 (568 to end residues) using KKKSPGEYVNIEF as substrate after 40 mins in presence of [gamma-33ATP] by radiometric scintillation counting analysis
[16] = target: Tyrosine-protein kinase Fyn (Homo sapiens, UniProt P06241); test: Inhibition of recombinant full length human Fyn using […] as substrate after 40 mins in presence of [gamma-33ATP] by radiometric scintillation counting analysis
[17] = target: G protein-coupled receptor kinase 3 (Homo sapiens, UniProt P35626); test: Inhibition of recombinant full length human GRK3 using casein as substrate after 40 mins in presence of [gamma-33ATP] by radiometric scintillation counting analysis
[18] = target: Serine/threonine-protein kinase/endoribonuclease IRE1 (Homo sapiens, UniProt O75460); test: Inhibition of human recombinant IRE1 (465 to end residues) using myelin basic protein as substrate after 40 mins by [gamma-33ATP] by radiometric scintillation counting analysis
[19] = target: Mitogen-activated protein kinase kinase kinase kinase 4 (Homo sapiens, UniProt O95819); test: Inhibition of recombinant human MAP4K4 (1 to 328 residues) using RLGRDKYKTLRQI as substrate incubated for 40 mins in presence of [gamma-33ATP by radiometric scintillation counting analysis
[20] = target: MAP/microtubule affinity-regulating kinase 3 (Homo sapiens, UniProt P27448); test: Inhibition of recombinant full length human MARK3 using KKKVSRSGLYRSP as substrate incubated for 40 mins in presence of [gamma-33ATP by radiometric scintillation counting analysis
[21] = target: Serine/threonine-protein kinase Sgk1 (Homo sapiens, UniProt O00141, S422D); test: Inhibition of recombinant human SGK S422D mutant (60 to end residues) using GRPRTSSFAEGKK as substrate incubated for 40 mins in presence of [gamma33P]ATP by radiometric scintillation counting analysis
[22] = Inhibition of human SNRK E97G/P116A double mutant (65 to 409 residues) using KKLRRTLSFAEPG as substrate incubated for 40 mins in presence of [gamma33P]ATP by radiometric scintillation counting analysis
[23] = target: Serine/threonine-protein kinase WNK3 (Homo sapiens, UniProt Q9BYP7); test: Inhibition of recombinant human WNK3 (1 to 434 residues) using myelin basic protein as substrate incubated for 40 mins in presence of [gamma33P]ATP by radiometric scintillation counting analysis
[24] = target: Tyrosine-protein kinase receptor UFO (Homo sapiens, UniProt P30530, Q764R); test: Inhibition of human recombinant Axl Q764R mutant (473 to end residues) using KKSRGDYMTMQIG as substrate measured after 40 mins in presence of [gamma33P]ATP by radiometric scintillation counting analysis

Sequence of Calcium/calmodulin-dependent protein kinase type 1 (Q14012 whole entry): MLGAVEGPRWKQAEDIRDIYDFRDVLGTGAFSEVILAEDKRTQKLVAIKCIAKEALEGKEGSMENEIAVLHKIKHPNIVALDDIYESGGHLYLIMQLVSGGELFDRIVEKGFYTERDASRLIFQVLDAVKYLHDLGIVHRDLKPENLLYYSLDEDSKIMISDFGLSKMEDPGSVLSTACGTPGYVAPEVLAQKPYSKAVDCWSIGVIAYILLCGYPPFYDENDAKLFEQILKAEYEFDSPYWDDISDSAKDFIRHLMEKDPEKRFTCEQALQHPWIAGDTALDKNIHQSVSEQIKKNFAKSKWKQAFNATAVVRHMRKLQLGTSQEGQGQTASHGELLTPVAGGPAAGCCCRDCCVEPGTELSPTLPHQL
Sequence of Serine/threonine-protein kinase Sgk1 (O00141 whole entry S422D, the tested form may be a part): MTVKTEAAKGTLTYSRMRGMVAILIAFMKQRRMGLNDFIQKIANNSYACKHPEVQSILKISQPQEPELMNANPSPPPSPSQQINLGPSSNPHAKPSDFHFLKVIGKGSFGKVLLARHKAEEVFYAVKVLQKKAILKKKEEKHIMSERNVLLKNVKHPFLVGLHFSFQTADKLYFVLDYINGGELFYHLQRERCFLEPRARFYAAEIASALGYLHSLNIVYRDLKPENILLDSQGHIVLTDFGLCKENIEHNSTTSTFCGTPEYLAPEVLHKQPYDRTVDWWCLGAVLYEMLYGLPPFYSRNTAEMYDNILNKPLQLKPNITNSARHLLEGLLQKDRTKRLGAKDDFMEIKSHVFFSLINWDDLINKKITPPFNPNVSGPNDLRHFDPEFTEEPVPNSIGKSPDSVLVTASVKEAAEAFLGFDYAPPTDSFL
Sequence of Transient receptor potential cation channel subfamily M member 7 (Q96QT4 whole entry): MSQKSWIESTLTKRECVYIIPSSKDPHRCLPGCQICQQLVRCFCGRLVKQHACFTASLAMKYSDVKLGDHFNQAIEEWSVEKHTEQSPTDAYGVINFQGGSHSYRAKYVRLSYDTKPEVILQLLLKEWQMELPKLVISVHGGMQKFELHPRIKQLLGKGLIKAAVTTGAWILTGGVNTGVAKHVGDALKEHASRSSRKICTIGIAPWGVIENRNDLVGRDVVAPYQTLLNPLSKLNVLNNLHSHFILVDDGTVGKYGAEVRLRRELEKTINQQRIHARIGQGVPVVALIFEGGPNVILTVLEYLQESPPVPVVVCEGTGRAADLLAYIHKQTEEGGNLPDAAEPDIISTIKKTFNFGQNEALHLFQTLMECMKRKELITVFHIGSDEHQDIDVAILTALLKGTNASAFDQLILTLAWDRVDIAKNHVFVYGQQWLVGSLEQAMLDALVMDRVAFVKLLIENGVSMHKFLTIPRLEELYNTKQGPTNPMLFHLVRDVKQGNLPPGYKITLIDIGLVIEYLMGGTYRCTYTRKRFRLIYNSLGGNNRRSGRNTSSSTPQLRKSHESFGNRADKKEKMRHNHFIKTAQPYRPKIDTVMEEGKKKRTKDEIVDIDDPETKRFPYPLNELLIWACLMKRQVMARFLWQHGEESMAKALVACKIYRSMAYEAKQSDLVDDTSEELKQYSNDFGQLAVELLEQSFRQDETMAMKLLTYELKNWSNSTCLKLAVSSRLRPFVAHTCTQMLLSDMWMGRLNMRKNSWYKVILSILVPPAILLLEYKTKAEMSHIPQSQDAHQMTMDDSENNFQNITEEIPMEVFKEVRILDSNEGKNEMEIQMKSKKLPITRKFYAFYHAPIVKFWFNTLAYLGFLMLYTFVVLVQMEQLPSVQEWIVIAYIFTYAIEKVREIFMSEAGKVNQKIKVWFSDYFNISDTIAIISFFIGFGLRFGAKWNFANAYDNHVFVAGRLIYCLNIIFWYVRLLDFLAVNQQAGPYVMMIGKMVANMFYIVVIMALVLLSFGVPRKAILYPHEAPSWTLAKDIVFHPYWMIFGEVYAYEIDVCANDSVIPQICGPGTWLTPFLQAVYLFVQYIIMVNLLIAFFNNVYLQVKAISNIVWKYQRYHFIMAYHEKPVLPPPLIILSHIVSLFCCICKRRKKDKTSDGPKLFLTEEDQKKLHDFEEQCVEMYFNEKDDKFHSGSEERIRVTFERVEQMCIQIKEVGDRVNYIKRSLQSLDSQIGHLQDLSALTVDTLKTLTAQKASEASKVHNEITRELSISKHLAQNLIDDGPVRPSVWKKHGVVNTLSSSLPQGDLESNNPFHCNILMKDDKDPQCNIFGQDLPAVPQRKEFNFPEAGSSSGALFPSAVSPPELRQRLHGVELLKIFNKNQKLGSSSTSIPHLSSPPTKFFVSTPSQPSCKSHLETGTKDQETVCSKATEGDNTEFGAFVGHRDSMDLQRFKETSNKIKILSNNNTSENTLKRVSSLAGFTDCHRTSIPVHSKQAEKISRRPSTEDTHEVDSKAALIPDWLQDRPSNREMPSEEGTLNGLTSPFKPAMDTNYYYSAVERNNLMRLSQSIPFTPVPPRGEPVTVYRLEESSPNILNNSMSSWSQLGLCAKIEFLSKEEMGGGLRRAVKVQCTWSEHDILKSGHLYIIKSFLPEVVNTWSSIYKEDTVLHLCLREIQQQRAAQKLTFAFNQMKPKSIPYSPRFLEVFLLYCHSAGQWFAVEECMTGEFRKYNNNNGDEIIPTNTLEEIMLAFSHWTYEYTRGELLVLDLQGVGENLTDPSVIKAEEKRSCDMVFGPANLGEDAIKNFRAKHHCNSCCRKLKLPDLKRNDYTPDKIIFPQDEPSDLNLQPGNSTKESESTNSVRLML
Sequence of Cyclin-dependent kinase 14/Cyclin-Y (O94921 whole entry, the tested form may be a part): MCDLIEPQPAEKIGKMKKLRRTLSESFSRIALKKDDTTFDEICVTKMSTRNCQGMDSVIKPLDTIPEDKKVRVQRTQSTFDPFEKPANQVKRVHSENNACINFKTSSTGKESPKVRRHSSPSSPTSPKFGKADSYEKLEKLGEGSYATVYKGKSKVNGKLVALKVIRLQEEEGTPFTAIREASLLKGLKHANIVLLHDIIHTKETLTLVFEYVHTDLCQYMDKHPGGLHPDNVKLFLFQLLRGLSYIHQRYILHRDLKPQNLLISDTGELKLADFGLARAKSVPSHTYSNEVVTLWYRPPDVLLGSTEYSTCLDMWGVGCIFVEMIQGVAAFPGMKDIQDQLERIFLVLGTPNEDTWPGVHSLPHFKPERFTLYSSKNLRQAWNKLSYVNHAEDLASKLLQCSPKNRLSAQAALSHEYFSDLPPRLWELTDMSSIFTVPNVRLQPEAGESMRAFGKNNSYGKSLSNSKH
Sequence of Cyclin-dependent kinase 14/Cyclin-Y (Q8ND76 whole entry, further chain, the tested form may be a part): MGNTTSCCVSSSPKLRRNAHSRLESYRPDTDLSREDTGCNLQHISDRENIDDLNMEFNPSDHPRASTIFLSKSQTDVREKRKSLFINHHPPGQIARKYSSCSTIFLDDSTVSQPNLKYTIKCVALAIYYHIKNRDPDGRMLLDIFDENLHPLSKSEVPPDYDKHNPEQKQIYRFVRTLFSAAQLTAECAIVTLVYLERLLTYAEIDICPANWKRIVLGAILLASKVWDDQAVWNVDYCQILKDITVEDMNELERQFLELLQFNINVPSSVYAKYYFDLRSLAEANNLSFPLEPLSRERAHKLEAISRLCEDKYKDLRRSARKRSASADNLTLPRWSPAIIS
Sequence of Serine/threonine-protein kinase/endoribonuclease IRE1 (O75460 whole entry, the tested form may be a part): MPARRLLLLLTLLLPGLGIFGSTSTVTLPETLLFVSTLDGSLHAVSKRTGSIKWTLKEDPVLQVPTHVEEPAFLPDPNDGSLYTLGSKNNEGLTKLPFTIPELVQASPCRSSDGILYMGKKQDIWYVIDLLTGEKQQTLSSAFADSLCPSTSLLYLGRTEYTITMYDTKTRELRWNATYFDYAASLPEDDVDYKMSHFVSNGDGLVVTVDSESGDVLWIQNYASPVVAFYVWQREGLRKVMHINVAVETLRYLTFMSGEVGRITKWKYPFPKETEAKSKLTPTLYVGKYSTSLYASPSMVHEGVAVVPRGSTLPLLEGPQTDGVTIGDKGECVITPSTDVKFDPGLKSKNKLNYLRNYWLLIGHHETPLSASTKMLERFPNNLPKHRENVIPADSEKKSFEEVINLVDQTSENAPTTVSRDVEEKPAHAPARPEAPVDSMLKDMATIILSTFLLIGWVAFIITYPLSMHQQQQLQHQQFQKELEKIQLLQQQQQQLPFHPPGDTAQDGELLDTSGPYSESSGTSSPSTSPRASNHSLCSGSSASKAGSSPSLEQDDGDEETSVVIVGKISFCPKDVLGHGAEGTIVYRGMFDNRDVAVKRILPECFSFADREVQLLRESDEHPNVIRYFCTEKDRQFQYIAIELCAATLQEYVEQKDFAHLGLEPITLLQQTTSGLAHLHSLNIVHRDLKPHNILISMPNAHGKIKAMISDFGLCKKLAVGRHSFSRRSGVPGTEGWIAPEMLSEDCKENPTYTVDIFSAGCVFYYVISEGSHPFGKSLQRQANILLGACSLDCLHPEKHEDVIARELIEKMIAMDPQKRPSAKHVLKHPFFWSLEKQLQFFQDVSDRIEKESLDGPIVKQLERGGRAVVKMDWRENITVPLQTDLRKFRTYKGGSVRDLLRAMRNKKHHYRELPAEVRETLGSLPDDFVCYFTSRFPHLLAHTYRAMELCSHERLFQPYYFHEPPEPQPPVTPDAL
Sequence of Tyrosine-protein kinase Fyn (P06241 whole entry): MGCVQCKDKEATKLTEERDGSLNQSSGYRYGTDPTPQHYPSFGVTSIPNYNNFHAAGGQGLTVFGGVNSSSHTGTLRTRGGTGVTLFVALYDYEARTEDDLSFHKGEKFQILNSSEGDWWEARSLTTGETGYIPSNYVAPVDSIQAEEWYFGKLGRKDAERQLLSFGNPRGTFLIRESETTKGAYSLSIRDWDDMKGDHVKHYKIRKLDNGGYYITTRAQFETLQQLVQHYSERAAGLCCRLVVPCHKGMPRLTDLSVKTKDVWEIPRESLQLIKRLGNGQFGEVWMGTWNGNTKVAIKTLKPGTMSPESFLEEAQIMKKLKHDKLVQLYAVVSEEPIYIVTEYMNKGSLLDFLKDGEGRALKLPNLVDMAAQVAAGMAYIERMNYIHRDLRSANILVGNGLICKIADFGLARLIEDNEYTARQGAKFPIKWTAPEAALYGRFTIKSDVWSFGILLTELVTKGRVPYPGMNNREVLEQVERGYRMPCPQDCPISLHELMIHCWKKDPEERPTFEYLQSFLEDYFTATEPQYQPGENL

CN(C)c1ccc(C(=O)Nc2cccc(NC(=O)COc3ccc4c(=O)ccoc4c3)c2)cc1
solubility thermodynamic [1]: 0.634 µg/mL (≈ 1.39 µM)
IC50 [2]: > 10 µM
IC50 [3]: > 10 µM
IC50 [4]: > 10 µM
IC50 [5]: > 10 µM
IC50 (CDK12/Cyclin K): > 10 µM
IC50 [6]: > 10 µM
IC50 [7]: > 10 µM
IC50 [8]: > 10 µM
IC50 [9]: > 10 µM
IC50 [10]: > 10 µM
IC50 [11]: > 10 µM
IC50 [12]: > 10 µM
IC50 [13]: > 10 µM
IC50 [14]: > 10 µM
IC50 [15]: > 10 µM
IC50 (Ephrin type-A receptor 1): > 10 µM
IC50 [16]: > 10 µM
IC50 [17]: > 10 µM
IC50 [18]: > 10 µM
IC50 [19]: > 10 µM
IC50 [20]: > 10 µM
IC50 [21]: > 10 µM
IC50 [22]: > 10 µM
IC50 [23]: > 10 µM
IC50 [24]: > 10 µM
